What follows are molecules tested against T1, human GPR40 (Homo sapiens, UniProt O14842) (assay: Cell-based aequorin assay using human GPR40). Details: activation of human GPR40; CHO cells transfected with GPR40 and aequorin expression vectors; aequorin luminescence, area-under-curve 2-20 seconds; read-out: Relative EC50.
T1 construct: expressed in transfected cells; host or cells: CHO cells, transiently transfected with Lipofectamine 2000 and co-transfected with an aequorin expression vector (Euroscreen)
T1 sequence (O14842 whole entry): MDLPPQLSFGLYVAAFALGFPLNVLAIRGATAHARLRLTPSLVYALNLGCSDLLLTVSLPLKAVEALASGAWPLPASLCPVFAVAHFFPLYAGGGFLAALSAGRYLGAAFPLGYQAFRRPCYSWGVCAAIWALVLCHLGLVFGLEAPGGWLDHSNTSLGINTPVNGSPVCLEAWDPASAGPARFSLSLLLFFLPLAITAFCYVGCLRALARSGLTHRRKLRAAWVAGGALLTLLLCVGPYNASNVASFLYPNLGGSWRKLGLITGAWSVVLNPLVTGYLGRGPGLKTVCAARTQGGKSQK
Method: A cell-based aequorin assay may be employed to characterize the modulatory activity of compounds on the GPR40 signaling pathway. In an exemplary assay, CHO cells are transfected in a 15 cm plated containing 14 million cells with 5 μg of GPR40 expression vector and 5 μg of Aequorin expression vector (Euroscreen) using Lipofectamine 2000 (Invitrogen). After 17-24 hours post-transfection, cells are washed with phosphate buffered saline (PBS) and detached from the tissue culture dish with 2 mL of trypsin (0.25%(w/v)). Trypsinization is halted with 28 mL of Hanks Buffered Salt Solution containing 20 mM Hepes (H/HBSS) and 0.01% fatty acid-free bovine serum albumin (BSA) or 0.625% fatty acid-free human serum albumin (HSA). Coelantrazine is added to 1 ug/mL and the cells are incubated for 2 hours at room temperature. Cells are gently mixed every 15 minutes. Compounds are dissolved in dimethyl sulfoxide for preparation of 10 mM stock solutions. Compounds are diluted in H/HBSS containing either 0.01% BSA or 0.625% HSA. Serial dilutions of the test compounds are prepared to determine dose response.
Aequorin luminescence measurements are made using an EG&G Berthold 96-well luminometer and the response is measured over a 20 second interval after cells and compounds were mixed. The area-under-curve from 2-20 seconds is plotted to determine dose reponse. The EC50 (effective concentration to reach 50% maximal response) is determined from the dose response plot. […]

| EC50 | SMILES |
| --- | --- |
| 10 to 100 nM | CC#CC(CC(=O)O)c1ccc(OCc2cccc(N(CC)c3ccccc3)c2)cc1 (centres unmarked) [Compound 10.2] |
| 10 to 100 nM | CC#CC(CC(=O)O)c1ccc(OCc2cccc(Oc3ccccc3)c2)cc1 (centres unmarked) [Compound 10.3] |
| 10 to 100 nM | CC#CC(CC(=O)O)c1ccc(OCc2ccc(-c3ccccn3)cc2)cc1 (centres unmarked) [Compound 10.4] |
| 100 to 1000 nM | CC#CC(CC(=O)O)c1ccc(OCc2ccc(S(=O)(=O)c3ccccc3)cc2)cc1 (centres unmarked) [Compound 10.5] |
| 10 to 100 nM | CC#CC(CC(=O)O)c1ccc(OCc2ccc(Cc3ccccc3)cc2)cc1 (centres unmarked) [Compound 10.6] |
| 100 to 1000 nM | CC#CC(CC(=O)O)c1ccc(OCc2ccc(CCc3ccccc3)cc2)cc1 (centres unmarked) [Compound 10.7] |
| 100 to 1000 nM | CC#CC(CC(=O)O)c1ccc(OCc2cccc(-c3ccccn3)c2)cc1 (centres unmarked) [Compound 10.8] |
| 100 to 1000 nM | CC#CC(CC(=O)O)c1ccc(OCc2cccc(-c3cccnc3)c2)cc1 (centres unmarked) [Compound 10.9] |
| 100 to 1000 nM | CC#CC(CC(=O)O)c1ccc(OCc2cccc(-c3ccncc3)c2)cc1 (centres unmarked) [Compound 10.10] |
| 1000 to 10000 nM | CC#CC(CC(=O)O)c1ccc(OCc2ccc(-c3cccnc3)cc2)cc1 (centres unmarked) [Compound 10.12] |
| 100 to 1000 nM | CC#CC(CC(=O)O)c1ccc(OCc2ccc(-c3ccncc3)cc2)cc1 (centres unmarked) [Compound 10.13] |
| 10 to 100 nM | CC#CC(CC(=O)O)c1ccc(OCc2cccc(-n3cccc3)c2)cc1 (centres unmarked) [Compound 10.14] |
| 100 to 1000 nM | CC#CC(CC(=O)O)c1ccc(OCc2cnn(-c3ccc(F)cc3)c2C)cc1 (centres unmarked) [Compound 11.1] |
| 1000 to 10000 nM | COc1ccc(COc2ccc(C(C#C[Si](C)(C)C)CC(=O)O)cc2)cc1 (centres unmarked) [Compound 14.1] |
| 100 to 1000 nM | COc1ccc(COc2ccc(C(CC(=O)O)c3ccc(F)cc3)cc2)cc1 (centres unmarked) [Compound 14.2] |
| 1000 to 10000 nM | CCC(CC(=O)O)c1ccc(OCc2ccc(OC)cc2)cc1 (centres unmarked) [Compound 14.3] |
| > 10000 nM | COc1ccc(COc2ccc(C(C)CC(=O)O)cc2)cc1 (centres unmarked) [Compound 14.4] |
| 1000 to 10000 nM | COCC#CC(CC(=O)O)c1ccc(OCc2ccc(OC)cc2)cc1 (centres unmarked) [Compound 14.5] |
| 1000 to 10000 nM | COc1ccc(COc2ccc(C(C#Cc3ccccc3)CC(=O)O)cc2)cc1 (centres unmarked) [Compound 14.6] |
| 100 to 1000 nM | CC#CC(CC(=O)O)c1ccc(OCc2ccccc2C)cc1 (centres unmarked) [Compound 17.6] |
| 1000 to 10000 nM | CC#CC(CC(=O)O)c1ccc(OCCc2ccccc2)cc1 (centres unmarked) [Compound 17.8] |
| 10 to 100 nM | CC#CC(CC(=O)O)c1ccc(OCc2nc(-c3ccc(C(F)(F)F)cc3)oc2C)cc1 (centres unmarked) [Compound 18, 3-{4-[5-Methyl-2-(4-trifluoromethyl-phenyl)-oxazol-4-ylmethoxy]-phenyl}-hex-4-ynoic acid] |
| 1000 to 10000 nM | CC#CC(Cc1nnn[nH]1)c1ccc(OCc2ccccc2C)cc1 (centres unmarked) [Compound 23, 5-{2-[4-(2-Methyl-benzyloxy)-phenyl]-pent-3-ynyl}-1H-tetrazole] |

| EC50 | SMILES |
| --- | --- |
| 100 to 1000 nM | CC#CC(CC(=O)Nc1nccs1)c1ccc(OCc2ccc(OC)cc2)cc1 (centres unmarked) [Compound 24, 3-[4-(4-Methoxy-benzyloxy)-phenyl]-hex-4-ynoic acid thiazol-2-ylamide] |
| 1000 to 10000 nM | CC#CC(CC(=O)Nc1nnn[nH]1)c1ccc(OCc2ccc(OC)cc2)cc1 (centres unmarked) [Compound 25.1] |
| 10 to 100 nM | CC#CC(CC(=O)O)c1ccc(OCc2nn(-c3ccccc3)nc2C)cc1 (centres unmarked) [Compound 26, 3-[4-(5-Methyl-2-phenyl-2H-[1,2,3]triazol-4-ylmethoxy)-phenyl]-hex-4-ynoic acid] |
| 100 to 1000 nM | CC#CC(CC(=O)O)c1ccc(OCc2noc(-c3ccc(C(F)(F)F)cc3)n2)cc1 (centres unmarked) [Compound 27.1] |
| 100 to 1000 nM | CC#CC(CC(=O)O)c1ccc(SCc2ccccc2C)cc1 (centres unmarked) [Compound 28, 3-[4-(2-Methyl-benzylsulfanyl)-phenyl]-hex-4-ynoic acid] |
| 1000 to 10000 nM | C=CCC(CC(=O)O)c1ccc(OCc2ccc(OC)cc2)cc1 (centres unmarked) [Compound 34.4] |
| 100 to 1000 nM | COc1ccc(COc2ccc(C(C=C(C)C)CC(=O)O)cc2)cc1 (centres unmarked) [Compound 34.5] |
| 100 to 1000 nM | CC#CC(CC(=O)O)c1ccc(NCc2cccc(OC)c2)cc1 (centres unmarked) [Compound 36.1] |
| 100 to 1000 nM | CC#CC(CC(=O)O)c1ccc(N(Cc2cccc(OC)c2)Cc2cccc(OC)c2)cc1 (centres unmarked) [Compound 36.2] |
| 10 to 100 nM | CC#C[C@@H](CC(=O)O)c1ccc(OCc2ccc(OC)cc2)cc1 [Compound 39.7, (3S)-3-[4-(4-Methoxy-benzyloxy)-phenyl]-hex-4-ynoic acid] |
| 1000 to 10000 nM | CC#C[C@H](CC(=O)O)c1ccc(OCc2ccc(OC)cc2)cc1 [Compound 40.5, (3R)-3-[4-(4-Methoxy-benzyloxy)-phenyl]-hex-4-ynoic acid] |
| 100 to 1000 nM | C#CC(CC(=O)O)c1ccc(OCc2ccc(OC)cc2)cc1 (centres unmarked) [Compound 41] |
| 100 to 1000 nM | O=C(O)CC(c1ccc(F)cc1)c1ccc(OCc2cccc(-c3ccc(C(F)(F)F)cc3)c2)cc1 (centres unmarked) [Compound 46.1, 3-(4-fluorophenyl)-3-[4-(4′-trifluoromethyl-biphenyl-3-ylmethoxy)-phenyl]-propionic acid] |
| 100 to 1000 nM | O=C(O)CC(c1ccc(OCc2cccc(-c3ccc(C(F)(F)F)cc3)c2)cc1)c1nccs1 (centres unmarked) [Compound 56] |
| 10 to 100 nM | O=C(O)CC(c1ccc(OCc2cccc(-c3ccc(C(F)(F)F)cc3)c2)cc1)n1cccn1 (centres unmarked) [Compound 62.3] |
| 100 to 1000 nM | CCCCOc1ccc(C)cc1-c1ccc(COc2ccc(C(CC(=O)O)c3ccnn3C)cc2)cc1 (centres unmarked) [Compound 66.5] |
| 1000 to 10000 nM | Cc1cnc(C(CC(=O)O)c2ccc(OCc3cccc(-c4ccc(C(F)(F)F)cc4)c3)cc2)s1 (centres unmarked) [Compound 70.1] |
| 100 to 1000 nM | O=C(O)CC(c1ccc(OCc2cccc(-c3ccc(C(F)(F)F)cc3)c2)cc1)c1cccnc1 (centres unmarked) [Compound 70.2] |
| 100 to 1000 nM | Cc1ccccc1COc1ccc(C(C#CC(C)C)CC(=O)O)cc1 (centres unmarked) [Compound 71] |
| 100 to 1000 nM | Cc1ccccc1COc1ccc(C(C#CC2CC2)CC(=O)O)cc1 (centres unmarked) [Compound 72] |
| 1000 to 10000 nM | CC#CC(CC(=O)O)c1ccc(N(C)Cc2cccc(OC)c2)cc1 (centres unmarked) [Compound 73] |
| 1000 to 10000 nM | CC#CC(CC(=O)O)c1ccc(NC(=O)c2cccc(OC)c2)cc1 (centres unmarked) [Compound 74] |
| > 10000 nM | Cc1ccccc1COc1ccc(C(C#CC(F)(F)F)CC(=O)O)cc1 (centres unmarked) [Compound 75] |

| EC50 | SMILES |
| --- | --- |
| 1000 to 10000 nM | CC#CC(CC(=O)O)c1ccc(OCc2cn(-c3ccc(Cl)cc3)nn2)cc1 (centres unmarked) [Compound 76] |
| 100 to 1000 nM | CC#CC(CC(=O)O)c1ccc(OCc2cc(-c3ccccc3)no2)cc1 (centres unmarked) [Compound 77] |
| 1000 to 10000 nM | CC#CC(CC(=O)O)c1ccc(OCc2ccc(-c3nc4ccccc4[nH]3)cc2)cc1 (centres unmarked) [Compound 78] |
| 1000 to 10000 nM | CC#CC(CC(=O)O)c1ccc(OCc2ccc(-n3cncn3)cc2)cc1 (centres unmarked) [Compound 79] |
| < 10 nM | CC#C[C@@H](CC(=O)O)c1ccc(OCc2csc(-c3ccc(C(F)(F)F)cc3)n2)cc1 [Compound 80] |
| 1000 to 10000 nM | CC#CC(CC(=O)NS(C)(=O)=O)c1ccc(OCc2ccc(OC)cc2)cc1 (centres unmarked) [Compound 81] |
| < 10 nM | COc1cccc(CN(Cc2cccc(OC)c2)c2ccc(N(CC(=O)O)c3ccccc3)cc2)c1 [Compound 82.1] |
| < 10 nM | COc1cccc(CNc2ccc(N(CC(=O)O)c3ccccc3)cc2)c1 [Compound 82.2] |
| < 10 nM | O=C(O)CN(c1ccccc1)c1ccc(NCc2cccc(Oc3ccccc3)c2)cc1 [Compound 82.3] |
| 10 to 100 nM | O=C(O)CN(c1ccccc1)c1ccc(NC(=O)Cc2ccccc2)cc1 [Compound 82.4] |
| < 10 nM | O=C(O)CN(c1ccccc1)c1ccc(NC(=O)CCc2ccccc2)cc1 [Compound 82.5] |
| < 10 nM | COc1cccc(/C=C/C(=O)Nc2ccc(N(CC(=O)O)c3ccccc3)cc2)c1 [Compound 82.6] |
| 1000 to 10000 nM | CC(=O)N[C@@H](CC(=O)O)c1ccc(OCc2cccc(Oc3ccc(F)cc3)c2)cc1 [Compound 83] |
| 10 to 100 nM | O=C(O)CC(c1ccccc1)c1ccc(OCc2cccc(Oc3ccccc3)c2)cc1 (centres unmarked) [Compound 84.1] |
| 100 to 1000 nM | Cc1ccccc1C(CC(=O)O)c1ccc(OCc2cccc(Oc3ccccc3)c2)cc1 (centres unmarked) [Compound 84.4] |
| 100 to 1000 nM | O=C(O)CC(c1ccc(Cl)cc1)c1ccc(OCc2cccc(Oc3ccccc3)c2)cc1 (centres unmarked) [Compound 84.5] |
| 100 to 1000 nM | O=C(O)CC(c1ccc(OCc2cccc(Oc3ccccc3)c2)cc1)c1cccc(Cl)c1 (centres unmarked) [Compound 84.6] |
| 100 to 1000 nM | COc1ccc(C(CC(=O)O)c2ccc(OCc3cccc(Oc4ccccc4)c3)cc2)cc1 (centres unmarked) [Compound 84.7] |
| 100 to 1000 nM | COc1cccc(C(CC(=O)O)c2ccc(OCc3cccc(Oc4ccccc4)c3)cc2)c1 (centres unmarked) [Compound 84.8] |
| 1000 to 10000 nM | O=C(O)CC(c1ccc(OCc2cccc(Oc3ccccc3)c2)cc1)c1ccc(C(F)(F)F)cc1 (centres unmarked) [Compound 85.1] |
| 100 to 1000 nM | O=C(O)CC(c1ccc(OCc2cccc(Oc3ccccc3)c2)cc1)c1cccc(C(F)(F)F)c1 (centres unmarked) [Compound 85.2] |

| SMILES | EC50 |
| --- | --- |
| CC(C)(C)OC(=O)N[C@@H](CC(=O)O)c1ccc(OCc2cccc(Oc3ccc(F)cc3)c2)cc1 [Compound 42.11, (S)-3-tert-Butoxycarbonylamino-3-{4-[3-(4-fluoro-phenoxy)-benzyloxy]-phenyl}-propionic acid] | 100 to 1000 nM |
